Consider five molecules from patent US20220007651A1, “BACILLUS THURINGIENSIS STRAINS AND METHODS FOR CONTROLLING PESTS” (priority 2018, published 2022).

In test [1] the test system is Spodoptera exigua Hübner (beet armyworm). The experiment in a line: Insecticidal assay, second instars on 48-well agar substrate plates. It counts as in vivo. The source says: Zwittermicin A was partially purified from a strain derived from Bacillus thuringiensis strain NRRL B-67688. After growing the strain in a soy-based medium, the whole broth was centrifuged and the supernatant removed. The supernatant was passed through a 3 kDa filter to separate the zwittermicin A from larger molecules including any Cry toxins. The Vip3Aa11 protein was produced in the expression strain of Escherichia coli BL21 and applied to insect larvae as the E. coli whole broth culture (WB) at concentrations of 0.1%, 1%, and 10%. Treatment groups included Vip3Aa11 only (“no Zwa”); Vip3Aa11 with zwittermicin A (“1×Zwa); and Vip3Aa11 with concentrated zwittermicin A (“2×Zwa”) containing twice as much zwittermicin. Concentrations of zwittermicin A and Vip3Aa11 were adjusted by adding deionized water to prepare the appropriate dilutions. Control treatments included zwittermicin A (“1×Zwa”) alone, concentrated zwittermicin A alone (“2×Zwa”), untreated control, and a positive control containing 1000 ppm of a commercially available biological control agent active against Lepidoptera.
To evaluate the insecticidal activity of each treatment, second instars of Spodoptera exigua Hυbner (beet armyworm) were grown on 48-well plates containing an agar substrate similar to that described in Marrone et al., (1985), “Improvements in Laboratory Rearing of the Southern Corn Rootworm, Diabrotica undecimpuncta howardi Barber (Coleoptera: Chrysomelidae), on an Artificial Diet and Corn,” J. Econ. Entomol. 78: 290-293. Each treatment was applied to the agar substrate and a second instar was then placed in the well. After several days, insect development and survival were evaluated. Insect development scores were rated according to the following scale: 1=severely stunted; 2=highly stunted, minimal growth; 3=slightly smaller than untreated control; 4=same size as untreated control. […]
The experiment conducted in Example 3 was repeated with Cry1Ab1, Cry1Ia2, or Cry2Ab1 expressed in Escherichia coli BL21 and applied to insect larvae as the E. coli whole broth culture (WB) at concentrations of 0.2%, 4%, 10%, and 50%. The insect mortality score is based on the following scale: 4=0-25% mortality, 3=26-50% mortality, 2=51-79% mortality, 1=80-100% mortality. All percentages are adjusted according to any mortality observed with untreated control Spodoptera exigua Hυbner (beet armyworm) larvae. […] All reported mortality scores are the average of three replicate measurements.
The experiment in Example 3 was also repeated with Cry1Ca1 and Cry1Da1, which were expressed in Escherichia coli BL21 and applied to insect larvae as the E. coli whole broth culture (WB) at various concentrations. Instead of insect mortality rates, LC50, which in this case is the percentage of whole broth needed to cause 50% mortality, without zwittermicin or with various concentrations of zwittermicin, was determined.

Another test relates to Lepidopteran pests. To be noted: Broderick et al., 2000; cited from earlier work.
Setting [2] is: Cry toxin applied alone, E. coli whole broth 0.2%, 4%, 10%, 50%.
Where [3] appears, read: Cry toxin in combination with zwittermicin A (1×Zwa), FIGS. 4A-4C.

On to `NC(=O)NCC(NC(=O)[C@@H](O)[C@H](O)[C@H](N)C(O)CC(O)C(N)CO)C(N)=O` (some centres unmarked) [zwittermicin A], for which the insect mortality result in test [1] (zwittermicin A alone, 1×Zwa) is given as “generally had no observable effect on insect mortality”; in test [1] (zwittermicin alone at the concentrations used in the LC50 experiment), “generally had no observable effect on insect mortality”. Also, the “effect on insect growth or survival” value in test [1] (zwittermicin alone, 1×Zwa or 2×Zwa) is reported as “no significant effect on insect growth or survival”. Moreover, in the test with Lepidopteran pests, the “insecticidal activity on its own” value is “little or no observable insecticidal activity”.
For “Cry1Ab1: Cry toxin expressed in Escherichia coli BL21, applied as whole broth”, the insect mortality entry in test [1] (setting [2]) is given as “demonstrated insect mortality at the higher application rates”; in test [1] (setting [3]), “significant increase in insect mortality”.
Regarding “Cry1Da1: Cry toxin, SEQ ID NO: 17, expressed in Escherichia coli BL21, applied as whole broth”, the “~LC50” value in test [1] (No Zwa) is >10 percentage of whole broth.

B1: Cry2Ab1: Cry toxin, SEQ ID NO: 10, expressed in Escherichia coli BL21, applied as whole broth (protein, listed as Bacillus thuringiensis)
chain: MNSVLNSGRTTICDAYNVAAHDPFSFQHKSLDTVQKEWTEWKKNNHSLYLDPIVGTVASFLLKKVGSLVGKRILSELRNLIFPSGSTNLMQDILRETEKFLNQRLNTDTLARVNAELTGLQANVEEFNRQVDNFLNPNRNAVPLSITSSVNTMQQLFLNRLPQFQMQGYQLLLLPLFAQAANLHLSFIRDVILNADEWGISAATLRTYRDYLKNYTRDYSNYCINTYQSAFKGLNTRLHDMLEFRTYMFLNVFEYVSIWSLFKYQSLLVSSGANLYASGSGPQQTQSFTSQDWPFLYSLFQVNSNYVLNGFSGARLSNTFPNIVGLPGSTTTHALLAARVNYSGGISSGDIGASPFNQNFNCSTFLPPLLTPFVRSWLDSGSDREGVATVTNWQTESFETTLGLRSGAFTARGNSNYFPDYFIRNISGVPLVVRNEDLRRPLHYNEIRNIASPSGTPGGARAYMVSVHNRKNNIHAVHENGSMIHLAPNDYTGFTISPIHATQVNNQTRTFISEKFGNQGDSLRFEQNNTTARYTLRGNGNSYNLYLRVSSIGNSTIRVTINGRVYTATNVNTTTNNDGVNDNGARFSDINIGNVVASSNSDVPLDINVTLNSGTQFDLMNIMLVPTNISPLY
B1: the insect mortality result was “demonstrated insect mortality at the higher application rates” in test [1] (setting [2]) and “significant increase in insect mortality” in test [1] (setting [3]).

B2: Cry1Ia2: Cry toxin, SEQ ID NO: 9, expressed in Escherichia coli BL21, applied as whole broth (protein, listed as Bacillus thuringiensis)
chain: MKLKNQDKHQSFSSNAKVDKISTDSLKNETDIELQNINHEDCLKMSEYENVEPFVSASTIQTGIGIAGKILGTLGVPFAGQVASLYSFILGELWPKGKNQWEIFMEHVEEIINQKISTYARNKALTDLKGLGDALAVYHDSLESWVGNRNNTRARSVVKSQYIALELMFVQKLPSFAVSGEEVPLLPIYAQAANLHLLLLRDASIFGKEWGLSSSEISTFYNRQVERAGDYSDHCVKWYSTGLNNLRGTNAESWVRYNQFRRDMTLMVLDLVALFPSYDTQMYPIKTTAQLTREVYTDAIGTVHPHPSFTSTTWYNNNAPSFSAIEAAVVRNPHLLDFLEQVTIYSLLSRWSNTQYMNMWGGHKLEFRTIGGTLNISTQGSTNTSINPVTLPFTSRDVYRTESLAGLNLFLTQPVNGVPRVDFHWKFVTHPIASDNFYYPGYAGIGTQLQDSENELPPEATGQPNYESYSHRLSHIGLISASHVKALVYSWTHRSADRTNTIEPNSITQIPLVKAFNLSSGAAVVRGPGFTGGDILRRTNTGTFGDIRVNINPPFAQRYRVRIRYASTTDLQFHTSINGKAINQGNFSATMNRGEDLDYKTFRTVGFTTPFSFLDVQSTFTIGAWNFSSGNEVYIDRIEFVPVEVTYEAEYDFEKAQEKVTALFTSTNPRGLKTDVKDYHIDQVSNLVESLSDEFYLDEKRELFEIVKYAKQLHIERNM
With B2, the insect mortality result in test [1] (setting [2]) is given as “little observable effect on insect mortality”; in test [1] (setting [3]), “significant increase in insect mortality”.
